This is an account of results in article PMC4823711, “Allosteric Partial Inhibition of Monomeric Proteases. Sulfated Coumarins Induce Regulation, not just Inhibition, of Thrombin” (Scientific Reports, 2016).

Structures are written as SMILES.

Assay [1] has as its target T1, factor Xa (Homo sapiens, UniProt P00742).
T1 construct: antithrombin, factor Xa and factor XIa were from Haematologic Technologies; purchased Haematologic Technologies (Essex Junction, VT); host or cells: human plasma
The experiment in a line: Chromogenic substrate hydrolysis assay, factor Xa inhibition (Spectrozyme FXa). In kind it is biochemical. How it is done: For factor XIa inhibition studies, 85 μL of buffer (50 mM Tris-HCl, 150 mM NaCl, 0.1% PEG 8000, 0.02% Tween 80, pH 7.4) was added to each well, followed by 7 μL of 15.3 nM enzyme and 3 μL of sulfated coumarin (3.75–500 μM final concentration) and incubated for 10 min at 37 °C. After the incubation period, 5 μL of 6.9 mM S-2366 was added to each well simultaneously and allowed to react for 300 sec at 37 °C. For factor Xa assay, 180 μL of buffer (20 mM Tris-HCl, 100 mM NaCl, 2.5 mM CaCl2, 0.1% PEG 8000, 0.02% Tween 80, pH 7.4) was added to each well followed by 5 μL of 43.5 nM enzyme, 10 μL of sulfated coumarin (0.002–250 μM final concentration). After a 10 min incubation, 5 μL of 5 mM Spectrozyme FXa was added to each well simultaneously and allowed to react for 300 seconds at 37 °C. The slopes generated from each experiment were used to calculate the fractional residual activity (Y) at each concentration of the inhibitor, and analyzed using logistic equation 1, in which YM is the maximum efficacy, Y0 is minimum efficacy and HS is the Hill slope.

Assay [2] addresses T2, fluorescein-labeled (f FPRCK-) thrombin (Homo sapiens, UniProt P00734).
T2 construct: fluorescein-labeled (f FPRCK-) human thrombin; purchased Haematologic Technologies (Essex Junction, VT); host or cells: human plasma
The experiment in a line: Thermodynamic affinity by fluorescence titration. It is filed as binding. The procedure: Affinity studies were performed in triplicate and conducted using quartz cuvettes. 180 μL of buffer (20 mM Tris-HCl, 100 mM NaCl, 2.5 mM CaCl2, 0.1% PEG 8000, pH 7.4) and 20 μL of 2 μM fluorescein-labeled (f FPRCK-) thrombin were added to the cuvette followed by titration with 1 μL additions of 3g. Fluorescence intensities were monitored by excitation at 490 nm and emission at 525 nm using slit widths of 0.5 mm. The KD of 3g–thrombin complex was calculated using the quadratic binding equation (equation 4) in which ∆F is the change in fluorescence from the formation of the thrombin-ligand complex with each addition of 3g. F0 is the initial fluorescence and ∆FMAX represents the maximum observed change in fluorescence due to thrombin saturation ([Th]0).

In a further assay the target is T3, thrombin mutant K235A (Homo sapiens, UniProt P00734, K610A).
T3 construct: a group of thrombin mutants containing replacement of either Arg or Lys present in exosite 2 to Ala
The experiment in a line: Inhibition of thrombin mutant K235A. In kind it is biochemical. To be noted: pH 7.4, 25 °C. The procedure:
(§1) Chromogenic substrate hydrolysis assay was used to measure potency of inhibition, as previously reported. The assay was performed using Flexstation III (Molecular Devices, Sunnyvale, CA) by monitoring substrate hydrolysis at 405 nm. For thrombin and its mutants, 180 μL of buffer (20 mM Tris-HCl, 100 mM NaCl, 2.5 mM CaCl2, 0.1% (polyethylene glycol) PEG 8000, pH 7.4) was added to each well followed by 5 μL of 240 nM thrombin and 10 μL of sulfated coumarin in DMSO to give 0.002 to 250 μM final concentration (or 10 μL of DMSO alone). After incubation for 10 min at 25 °C, 5 μL of 2 mM Spectrozyme TH was added to each well simultaneously and allowed to react for 60 seconds at 25 °C while simultaneously monitoring the reaction to obtain the rate of increase in A405. Identical experimental conditions were used for reactions in the presence of antithrombin, except for 100 nM of antithrombin added prior to the addition of the substrate.

For a further assay, the target named is T4, thrombin mutant R233A (Homo sapiens, UniProt P00734, R608A).
T4 construct: a group of thrombin mutants containing replacement of either Arg or Lys present in exosite 2 to Ala
The experiment in a line: Inhibition of thrombin mutant R233A. In kind it is biochemical. The following applies: pH 7.4, 25 °C. How it is done:
as §1

The target in the next assay is T5, thrombin mutant R175A (Homo sapiens, UniProt P00734, R543A).
T5 construct: a group of thrombin mutants containing replacement of either Arg or Lys present in exosite 2 to Ala
The experiment in a line: Inhibition of thrombin mutant R175A. It is filed as biochemical. To be noted: pH 7.4, 25 °C. The procedure: as §1

For another assay, the target named is T6, thrombin mutant R173A (Homo sapiens, UniProt P00734, R541A).
T6 construct: a group of thrombin mutants containing replacement of either Arg or Lys present in exosite 2 to Ala
The experiment in a line: Inhibition of thrombin mutant R173A. It is filed as biochemical. The following applies: pH 7.4, 25 °C. How it is done: as §1

In assay [3] the target is T1, factor Xa. The experiment in a line: Antithrombin inactivation of factor Xa in the presence of sulfated coumarin. The following applies: 0 or 220 nM 3g, pH 7.2, 25 °C. It is filed as biochemical. How it is done:
(§2) The effect of 3g on the reaction of thrombin (or factor Xa) with antithrombin was studied under pseudo-first order conditions such that [AT]0 ≫ [T]0. A fixed concentration of 6 nM plasma α-thrombin in 20 mM Tris-HCl buffer, pH 7.2, containing 100 mM NaCl, 2.5 mM CaCl2 and 0.1% PEG 8000 at 25 °C was incubated for 128 min with final concentrations of 0, 75, 225, or 675 nM of 3g following which a fixed concentration of 100 nM of antithrombin was added and the reaction allowed to proceed. […] The initial rate of hydrolysis of the Spectrozymes were monitored from the linear increase in A405. The fractional residual enzyme activity at each time point was calculated from the slope, i.e., thrombin activity, measured at the start of the experiment and fitted by the standard exponential decay equation 6 to calculate the observed pseudo-first order rate constant, kOBS, at each concentration of 3g. The intrinsic second-order rate constant of antithrombin inhibition of thrombin (kINT) was calculated using equation 7 and plotted against the concentration of thrombin–3g complex, obtained from quadratic equation 8, to derive the kINT of antithrombin inhibition of thrombin–3g complex.

A further assay addresses thrombin (Homo sapiens, UniProt P00734). The experiment in a line: Antithrombin inactivation of thrombin in the presence of sulfated coumarin. In kind it is biochemical. Set-up: 6 nM plasma α-thrombin; purchased Haematologic Technologies (Essex Junction, VT); host or cells: human plasma. The procedure:
as §2

T1 sequence (P00742 235-488 limits assumed): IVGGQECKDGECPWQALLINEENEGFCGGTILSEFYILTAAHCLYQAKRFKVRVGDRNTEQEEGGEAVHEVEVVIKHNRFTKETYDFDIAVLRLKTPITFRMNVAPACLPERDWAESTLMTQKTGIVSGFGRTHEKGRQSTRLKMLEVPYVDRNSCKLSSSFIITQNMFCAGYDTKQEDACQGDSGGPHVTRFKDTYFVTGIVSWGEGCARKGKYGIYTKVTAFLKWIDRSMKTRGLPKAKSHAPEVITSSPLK
T1 sequence (P00742 41-179 limits assumed): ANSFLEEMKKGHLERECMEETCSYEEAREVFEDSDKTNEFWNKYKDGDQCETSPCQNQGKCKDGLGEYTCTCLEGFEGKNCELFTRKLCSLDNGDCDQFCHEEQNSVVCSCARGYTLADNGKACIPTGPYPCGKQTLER

`O=c1oc2cc(OCCCCn3cc(COc4ccc(-c5c(-c6ccccc6)c6cc(Cl)cc(Cl)c6oc5=O)cc4)nn3)ccc2c(-c2ccccc2)c1-c1ccc(OS(=O)(=O)O)cc1` [3g]: the “selectivity for thrombin in comparison to factor Xa” value at factor Xa [1] was ~ 800 fold. In addition, the half-maximal inhibitory concentration (IC50) on factor Xa [1] (pH 7.4, 37 °C, read-out: IC50 against factor Xa) is > 30000 nM; at thrombin mutant K235A, 471 ± 80 nM; on thrombin mutant R233A it was 359 ± 70 nM; against thrombin mutant R175A, 409 ± 80 nM; against thrombin mutant R173A it was 522 ± 90 nM. Also, the ΔFMAX in assay [2] (loss in fluorescence at saturation) was ~ 28%. This compound also registered a dissociation constant (Kd) in assay [2] (pH 7.4, λEX 490 nm, λEM 525 nm, quadratic binding equation) of 143 ± 14 nM. Moreover, the HS was determined as 1.9 at thrombin mutant K235A, 2.0 at thrombin mutant R233A, 2.2 at thrombin mutant R175A and 2.0 on thrombin mutant R173A. For the same compound, the ΔY at thrombin mutant K235A was determined as 33 ± 3%; on thrombin mutant R233A it was 33 ± 4%; at thrombin mutant R175A it was 42 ± 5%; at thrombin mutant R173A, 36 ± 3%. Besides, at factor Xa [3], the “change in the second-order rate constant of antithrombin inhibition of factor Xa” value is “did not induce any change”. The “kINT, second order rate constant of antithrombin inhibition of thrombin–3g complex” value on thrombin (at 100% saturation of thrombin, pH 7.2, 25 °C, thrombin alone 2476 ± 228) was found to be 821 ± 198 M⁻¹ s⁻¹. Besides, on thrombin (kINT in the absence of 3g equated with 100%), the “proteolytic activity of thrombin–3g complex” value stood at 33 ± 12%.

By IC50 is commonly meant the concentration that inhibits the measured activity by half. In general, Kd refers to the free concentration of one partner at which half of the binding sites on the other are occupied at equilibrium, for simple one-to-one binding. High values mean a looser complex, low ones a tighter complex.
